Reference: publication PMC4178217, “Quinoline 3-sulfonamides inhibit lactate dehydrogenase A and reverse aerobic glycolysis in cancer cells” (Cancer & Metabolism, 2013)
Entries after “also recorded” stand apart in the source; their conditions may differ. Where two headings read alike, the source gives them in different places.

Experiments:
[1] = target: Serotonin Receptor 5HT1B (Homo sapiens, UniProt P28222); test: Serotonin Receptor 5HT1B AG; conditions: agonist; read-out: pEC50 Serotonin Receptor 5HT1B AG (converted)
Description: (§1) ANT = antagonist (pIC50), AG = agonist (pEC50). pIC50 and pEC50 are the negative logarithms10 of IC50 and EC50, respectively. Click here for file

[2] = target: Aurora B Kinase (Homo sapiens, UniProt Q96GD4); test: Aurora B Kinase ANT; assay type: biochemical; conditions: antagonist; read-out: pIC50 Aurora B Kinase ANT (converted)
Chain of Aurora B Kinase (Q96GD4 whole entry): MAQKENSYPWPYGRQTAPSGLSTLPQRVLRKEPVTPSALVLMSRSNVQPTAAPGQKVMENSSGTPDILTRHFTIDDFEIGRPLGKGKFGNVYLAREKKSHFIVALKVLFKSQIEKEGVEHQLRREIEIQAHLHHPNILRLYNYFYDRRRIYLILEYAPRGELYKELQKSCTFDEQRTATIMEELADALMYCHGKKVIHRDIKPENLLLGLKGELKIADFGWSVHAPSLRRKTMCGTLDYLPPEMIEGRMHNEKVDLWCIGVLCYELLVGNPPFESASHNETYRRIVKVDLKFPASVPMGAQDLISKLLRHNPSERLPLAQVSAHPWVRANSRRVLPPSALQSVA
Description: as §1

[3] = target: Opioid Receptor k (Homo sapiens, UniProt P41145); test: Opioid Receptor k AG; conditions: agonist; read-out: pEC50 Opioid Receptor k AG (converted)
Description: as §1

[4] = target: T1, Serotonin Receptor 5HT2A (Homo sapiens, UniProt P28223); test: Serotonin Receptor 5HT2A ANT; conditions: antagonist; read-out: pIC50 Serotonin Receptor 5HT2A ANT (converted)
T1 sequence (P28223 whole entry): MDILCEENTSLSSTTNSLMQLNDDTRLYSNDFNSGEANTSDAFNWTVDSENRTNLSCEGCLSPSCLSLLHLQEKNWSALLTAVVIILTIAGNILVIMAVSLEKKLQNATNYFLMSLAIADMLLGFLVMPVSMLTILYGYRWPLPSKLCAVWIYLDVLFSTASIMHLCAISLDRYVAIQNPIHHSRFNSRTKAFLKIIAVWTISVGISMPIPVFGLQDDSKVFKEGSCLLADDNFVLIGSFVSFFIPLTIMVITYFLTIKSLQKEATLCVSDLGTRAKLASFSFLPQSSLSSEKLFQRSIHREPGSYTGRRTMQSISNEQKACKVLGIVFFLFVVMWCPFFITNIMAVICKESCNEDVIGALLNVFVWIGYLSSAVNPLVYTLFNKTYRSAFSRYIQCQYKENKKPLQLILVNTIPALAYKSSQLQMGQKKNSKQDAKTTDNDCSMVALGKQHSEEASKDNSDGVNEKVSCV
Description: as §1

[5] = target: Phosphodiesterase 4B (Homo sapiens, UniProt Q07343); test: Phosphodiesterase 4B ANT; assay type: biochemical; conditions: antagonist; read-out: pIC50 Phosphodiesterase 4B ANT (converted)
Chain of Phosphodiesterase 4B (Q07343 whole entry): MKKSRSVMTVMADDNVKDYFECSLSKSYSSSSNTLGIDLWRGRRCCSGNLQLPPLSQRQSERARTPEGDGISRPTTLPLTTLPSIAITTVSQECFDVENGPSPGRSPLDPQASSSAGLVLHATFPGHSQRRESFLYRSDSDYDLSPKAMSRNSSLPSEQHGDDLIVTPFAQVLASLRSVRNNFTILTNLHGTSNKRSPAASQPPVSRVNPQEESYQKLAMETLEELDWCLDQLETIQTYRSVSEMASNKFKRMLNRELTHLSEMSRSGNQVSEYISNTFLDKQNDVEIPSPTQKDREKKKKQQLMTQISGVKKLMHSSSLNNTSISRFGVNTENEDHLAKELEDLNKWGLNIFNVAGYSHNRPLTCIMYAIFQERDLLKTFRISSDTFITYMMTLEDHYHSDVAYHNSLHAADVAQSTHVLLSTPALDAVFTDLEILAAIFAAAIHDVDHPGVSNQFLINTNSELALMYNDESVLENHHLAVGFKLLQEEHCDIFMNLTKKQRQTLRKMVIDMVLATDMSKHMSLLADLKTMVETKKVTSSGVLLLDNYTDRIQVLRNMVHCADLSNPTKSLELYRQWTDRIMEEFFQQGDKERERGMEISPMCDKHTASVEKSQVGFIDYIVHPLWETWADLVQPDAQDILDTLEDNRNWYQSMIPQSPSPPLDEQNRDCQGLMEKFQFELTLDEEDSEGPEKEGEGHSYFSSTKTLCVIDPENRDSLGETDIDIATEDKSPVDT
Description: as §1

[6] = target: Nicotinic Ach Receptor A1 (Homo sapiens, UniProt P02708+P07510+Q07001); test: Nicotinic Ach Receptor A1 AG
Description: as §1

[7] = target: Adenosine Receptor a2A (Homo sapiens, UniProt P29274); test: Adenosine Receptor a2A ANT; conditions: antagonist; read-out: pIC50 Adenosine Receptor a2A ANT (converted)
Chain of Adenosine Receptor a2A (P29274 whole entry, species assumed): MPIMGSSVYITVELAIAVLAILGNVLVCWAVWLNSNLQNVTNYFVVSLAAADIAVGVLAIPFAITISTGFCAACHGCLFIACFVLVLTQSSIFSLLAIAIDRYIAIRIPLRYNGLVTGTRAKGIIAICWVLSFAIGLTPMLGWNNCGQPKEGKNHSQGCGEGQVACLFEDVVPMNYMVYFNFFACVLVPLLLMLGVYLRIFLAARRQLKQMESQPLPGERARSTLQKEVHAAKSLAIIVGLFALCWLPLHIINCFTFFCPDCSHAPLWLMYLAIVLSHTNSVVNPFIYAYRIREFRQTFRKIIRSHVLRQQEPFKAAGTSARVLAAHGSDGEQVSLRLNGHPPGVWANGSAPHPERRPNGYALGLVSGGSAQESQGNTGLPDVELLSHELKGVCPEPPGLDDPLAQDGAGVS
Description: as §1

[8] = target: T2, Muscarinic Receptor M1 (Homo sapiens, UniProt P11229); test: Muscarinic Receptor M1 AG; conditions: agonist; read-out: pEC50 Muscarinic Receptor M1 AG (converted)
T2 sequence (P11229 1-460): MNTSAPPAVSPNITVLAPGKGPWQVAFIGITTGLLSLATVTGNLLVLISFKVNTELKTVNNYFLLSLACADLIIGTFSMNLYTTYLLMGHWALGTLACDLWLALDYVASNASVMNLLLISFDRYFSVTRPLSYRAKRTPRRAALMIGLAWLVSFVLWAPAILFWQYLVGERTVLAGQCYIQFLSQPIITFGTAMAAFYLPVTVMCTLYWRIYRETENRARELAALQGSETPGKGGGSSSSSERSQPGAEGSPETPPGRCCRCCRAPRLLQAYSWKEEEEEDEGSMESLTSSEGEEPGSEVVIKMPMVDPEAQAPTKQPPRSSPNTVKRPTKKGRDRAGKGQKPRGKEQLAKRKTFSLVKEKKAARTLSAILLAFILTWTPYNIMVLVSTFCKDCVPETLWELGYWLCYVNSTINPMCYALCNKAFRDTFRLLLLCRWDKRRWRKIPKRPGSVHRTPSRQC
Description: as §1

[9] = target: T1, Serotonin Receptor 5HT2A; test: Serotonin Receptor 5HT2A AG; conditions: agonist; read-out: pEC50 Serotonin Receptor 5HT2A AG (converted)
Description: as §1

[10] = target: Opioid Receptor m (Homo sapiens, UniProt P35372); test: Opioid Receptor m AG; conditions: agonist; read-out: pEC50 Opioid Receptor m AG (converted)
Chain of Opioid Receptor m (P35372 whole entry): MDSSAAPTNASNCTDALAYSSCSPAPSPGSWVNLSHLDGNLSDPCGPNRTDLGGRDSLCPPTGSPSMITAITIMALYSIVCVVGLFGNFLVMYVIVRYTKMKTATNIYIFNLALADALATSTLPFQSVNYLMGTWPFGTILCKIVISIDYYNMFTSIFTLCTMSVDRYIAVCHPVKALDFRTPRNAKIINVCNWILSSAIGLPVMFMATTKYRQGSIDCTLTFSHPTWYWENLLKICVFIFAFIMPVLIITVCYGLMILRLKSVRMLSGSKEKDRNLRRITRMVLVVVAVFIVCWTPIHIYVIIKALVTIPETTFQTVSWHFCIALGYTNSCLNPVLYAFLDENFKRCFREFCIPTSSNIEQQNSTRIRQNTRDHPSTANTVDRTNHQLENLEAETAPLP
Description: as §1

[11] = target: T3, Dopamin Receptor D2 (Homo sapiens, UniProt P14416); test: Dopamin receptor D2 ANT; conditions: antagonist; read-out: pIC50 Dopamin receptor D2 ANT (converted)
T3 sequence (P14416 whole entry): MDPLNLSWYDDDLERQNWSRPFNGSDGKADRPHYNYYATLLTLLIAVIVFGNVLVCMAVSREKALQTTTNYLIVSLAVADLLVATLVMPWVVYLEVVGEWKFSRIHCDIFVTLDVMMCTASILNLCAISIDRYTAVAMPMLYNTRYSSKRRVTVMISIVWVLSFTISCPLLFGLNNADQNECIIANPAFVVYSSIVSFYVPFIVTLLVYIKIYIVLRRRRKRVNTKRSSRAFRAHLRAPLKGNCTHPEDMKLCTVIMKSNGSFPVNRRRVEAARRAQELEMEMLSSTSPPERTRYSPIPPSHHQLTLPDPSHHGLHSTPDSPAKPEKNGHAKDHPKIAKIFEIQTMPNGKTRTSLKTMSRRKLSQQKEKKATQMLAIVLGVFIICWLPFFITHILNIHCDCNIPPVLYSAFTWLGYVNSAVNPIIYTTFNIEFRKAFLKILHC
Description: as §1

[12] = target: Vasopressin Receptor V1a (Homo sapiens, UniProt P37288); test: Vasopressin Receptor V1a ANT; conditions: antagonist; read-out: pIC50 Vasopressin Receptor V1a ANT (converted)
Chain of Vasopressin Receptor V1a (P37288 whole entry): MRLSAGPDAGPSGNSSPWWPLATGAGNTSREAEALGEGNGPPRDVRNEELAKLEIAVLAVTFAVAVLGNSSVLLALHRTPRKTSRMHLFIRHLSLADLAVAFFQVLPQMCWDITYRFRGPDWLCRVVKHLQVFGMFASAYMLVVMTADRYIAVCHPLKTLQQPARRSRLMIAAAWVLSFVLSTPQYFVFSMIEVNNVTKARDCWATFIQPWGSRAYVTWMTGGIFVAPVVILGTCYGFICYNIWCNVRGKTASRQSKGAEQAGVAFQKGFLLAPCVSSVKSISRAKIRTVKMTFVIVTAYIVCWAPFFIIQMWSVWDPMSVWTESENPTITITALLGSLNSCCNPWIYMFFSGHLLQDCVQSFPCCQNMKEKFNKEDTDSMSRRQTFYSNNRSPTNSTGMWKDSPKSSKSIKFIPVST
Description: as §1

[13] = target: Cyclooxygenase 2 (Homo sapiens, UniProt P35354); test: Cyclooxygenase 2 ANT; assay type: biochemical; conditions: antagonist; read-out: pIC50 Cyclooxygenase 2 ANT (converted)
Chain of Cyclooxygenase 2 (P35354 18-604, species assumed): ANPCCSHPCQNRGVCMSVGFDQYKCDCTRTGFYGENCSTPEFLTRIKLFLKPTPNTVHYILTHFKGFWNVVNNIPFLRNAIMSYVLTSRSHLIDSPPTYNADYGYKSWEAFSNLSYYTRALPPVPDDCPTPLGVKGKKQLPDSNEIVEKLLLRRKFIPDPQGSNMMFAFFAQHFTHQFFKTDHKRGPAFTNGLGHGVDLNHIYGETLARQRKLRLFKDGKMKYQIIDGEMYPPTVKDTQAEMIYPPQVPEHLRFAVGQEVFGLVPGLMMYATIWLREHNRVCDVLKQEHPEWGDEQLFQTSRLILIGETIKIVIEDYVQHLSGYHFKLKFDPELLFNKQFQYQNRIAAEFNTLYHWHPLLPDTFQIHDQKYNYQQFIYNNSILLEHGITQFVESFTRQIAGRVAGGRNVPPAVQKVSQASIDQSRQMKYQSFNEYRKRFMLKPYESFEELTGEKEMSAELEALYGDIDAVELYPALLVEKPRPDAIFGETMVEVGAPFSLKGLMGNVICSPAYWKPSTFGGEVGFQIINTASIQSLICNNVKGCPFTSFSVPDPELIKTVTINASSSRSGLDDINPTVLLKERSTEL
Description: as §1

[14] = target: T4, Serotonin Receptor 5HT3 (Homo sapiens, UniProt P46098); test: Serotonin Receptor 5HT3 AG; conditions: agonist; read-out: pEC50 Serotonin Receptor 5HT3 AG (converted)
T4 sequence (P46098 24-478): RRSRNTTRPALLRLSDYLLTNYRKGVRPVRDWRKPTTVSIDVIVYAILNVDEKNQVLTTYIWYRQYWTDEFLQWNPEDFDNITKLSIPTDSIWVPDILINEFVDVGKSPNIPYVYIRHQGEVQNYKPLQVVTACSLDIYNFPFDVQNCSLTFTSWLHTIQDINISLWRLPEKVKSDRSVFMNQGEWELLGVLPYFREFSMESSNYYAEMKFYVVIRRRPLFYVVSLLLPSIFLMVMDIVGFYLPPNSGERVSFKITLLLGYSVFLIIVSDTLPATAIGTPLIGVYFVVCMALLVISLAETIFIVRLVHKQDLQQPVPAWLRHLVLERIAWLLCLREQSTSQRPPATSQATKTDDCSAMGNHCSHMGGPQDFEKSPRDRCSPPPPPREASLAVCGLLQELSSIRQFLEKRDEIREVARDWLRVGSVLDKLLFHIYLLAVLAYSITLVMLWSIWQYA
Description: as §1

[15] = target: Potassium Channel KCNQ1 (Homo sapiens, UniProt P51787); test: Potassium Channel KCNQ1 ANT; conditions: antagonist; read-out: pIC50 Potassium Channel KCNQ1 ANT (converted)
Description: as §1

[16] = target: Serotonin Receptor 5H1; test: Serotonin Receptor 5H1 ANT; conditions: antagonist
Description: as §1

[17] = target: T4, Serotonin Receptor 5HT3; test: Serotonin Receptor 5HT3 ANT; conditions: antagonist; read-out: pIC50 Serotonin Receptor 5HT3 ANT (converted)
Description: as §1

[18] = target: Pregnane X receptor (Homo sapiens, UniProt O75469); test: Pregnane X receptor AG; conditions: agonist; read-out: pEC50 Pregnane X receptor AG (converted)
Chain of Pregnane X receptor (O75469 whole entry, species assumed): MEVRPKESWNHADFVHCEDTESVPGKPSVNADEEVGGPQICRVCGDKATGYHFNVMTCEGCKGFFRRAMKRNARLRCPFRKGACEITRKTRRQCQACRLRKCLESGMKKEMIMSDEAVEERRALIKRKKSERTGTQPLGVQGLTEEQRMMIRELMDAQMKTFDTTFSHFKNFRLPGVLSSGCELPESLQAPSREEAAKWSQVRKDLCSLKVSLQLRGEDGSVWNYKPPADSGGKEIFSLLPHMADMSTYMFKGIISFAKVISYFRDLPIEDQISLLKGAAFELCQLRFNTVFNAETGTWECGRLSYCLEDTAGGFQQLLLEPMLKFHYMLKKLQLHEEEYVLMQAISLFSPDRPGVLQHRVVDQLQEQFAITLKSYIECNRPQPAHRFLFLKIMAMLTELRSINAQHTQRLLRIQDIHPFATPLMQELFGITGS
Description: as §1

[19] = target: Dopamin Receptor D1 (Homo sapiens, UniProt P21728); test: Dopamin Receptor D1 ANT; conditions: antagonist; read-out: pIC50 Dopamin Receptor D1 ANT (converted)
Chain of Dopamin Receptor D1 (P21728 whole entry): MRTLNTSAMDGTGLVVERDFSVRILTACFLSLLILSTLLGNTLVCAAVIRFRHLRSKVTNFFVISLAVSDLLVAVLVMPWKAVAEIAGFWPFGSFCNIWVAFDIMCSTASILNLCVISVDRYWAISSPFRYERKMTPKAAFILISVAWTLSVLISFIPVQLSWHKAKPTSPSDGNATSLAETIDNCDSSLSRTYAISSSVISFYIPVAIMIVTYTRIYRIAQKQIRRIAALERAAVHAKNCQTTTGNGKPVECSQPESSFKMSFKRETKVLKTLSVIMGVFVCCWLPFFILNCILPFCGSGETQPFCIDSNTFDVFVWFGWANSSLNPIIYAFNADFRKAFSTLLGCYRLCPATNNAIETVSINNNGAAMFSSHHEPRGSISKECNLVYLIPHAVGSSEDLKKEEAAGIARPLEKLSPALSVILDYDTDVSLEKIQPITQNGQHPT
Description: as §1

[20] = tested on: Snu398 cells; test: Fructose-1,6-bisphosphate (FBP) analysis; assay type: cell-based, human; conditions: Snu398, 10 μM, 24 h R10 or 6 h low glucose
Procedure: Treatment was carried out for 24 h in R10 or for 6 h in low glucose medium. At the end of this treatment, cells were washed, lifted by trypsinization, counted, and cell pellets were submitted for analysis of FBP to Apredica, Inc.

[21] = target: T3, Dopamin Receptor D2; test: Dopamin Receptor D2 AG; conditions: agonist; read-out: pEC50 Dopamin Receptor D2 AG (converted)
Description: as §1

`COc1ncc(-c2ccc3c(Nc4cc(Oc5cc(F)cc(F)c5)cc(C(=O)O)c4)c(S(=O)(=O)NC4CC4)cnc3c2)c(OC)n1` [Compound 1] gave an EC50 [1] of 31.6 µM, an IC50 [2] of 7.94 µM and an EC50 [3] of 100 µM. It also gave an IC50 [4] of 39.8 µM, an IC50 [5] of 1.26 µM and an EC50 [6] of 50.1 µM. For the same compound, the IC50 [7] was 31.6 µM, the EC50 [8] was 15.8 µM and the EC50 [9] was 39.8 µM. It also gave an EC50 [10] of 100 µM, an IC50 [11] of 39.8 µM and an IC50 [12] of 50.1 µM. The IC50 [13] was 100 µM, the EC50 [14] was 50.1 µM and the IC50 [15] was 25.1 µM. The “pIC50 Serotonin Receptor 5H1 ANT” value [16] was 4.7, the IC50 [17] was 50.1 µM and the EC50 [18] was 50.1 µM. The IC50 [19] was 31.6 µM, the “intracellular fructose-1,6-bisphosphate (FBP) level” value [20] was “increase intracellular levels of fructose-1,6-bisphosphate (FBP); also recorded: Increase in fructose-1,6-bisphosphate (FBP)” and the EC50 [21] was 100 µM.

Compound `COc1ncc(-c2ccc3c(Nc4cc(C(=O)O)cc(C5CCCC5)c4)c(S(=O)(=O)NC4CC4)cnc3c2)c(OC)n1` [Compound 2] has an EC50 [1] of 31.6 µM, an IC50 [2] of 31.6 µM and an EC50 [3] of 100 µM. For the same compound, the IC50 [4] was 31.6 µM, the IC50 [5] was 0.501 µM and the EC50 ([6]; agonist, read-out: pEC50 Nicotinic Ach Receptor A1 AG (converted)) was 50.1 µM. The IC50 [7] was 31.6 µM, the EC50 [8] was 15.8 µM and the EC50 [9] was 39.8 µM. It also gave an EC50 [10] of 100 µM, an IC50 [11] of 100 µM and an IC50 [12] of 20 µM. The IC50 [13] was 63.1 µM, the EC50 [14] was 39.8 µM and the IC50 [15] was 25.1 µM. The “pIC50 Serotonin Receptor 5H1 ANT” value [16] was 4.4, the IC50 [17] was 12.6 µM and the EC50 [18] was 50.1 µM. For the same compound, the IC50 [19] was 31.6 µM, the “intracellular fructose-1,6-bisphosphate (FBP) level” value [20] was “increase intracellular levels of fructose-1,6-bisphosphate (FBP)” and the EC50 [21] was 100 µM.
